Source: patent US20240009173A1, “Use of 5-HT3-Targeting Drugs for Treatment of Acute Kidney Injury” (priority 2020, published 2024)
Like-named read-outs stand apart in the source and are kept apart here.

What was measured:
patients with AKI [1] = conditions: human, in vivo
patients with AKI [2] = conditions: human, in vivo; remark: listed apart in the source
patients with AKI [3] = system: patients with AKI; parameters: species or system human; conditions: in vivo
all ICU patients = conditions: cited from earlier work
ICU patients with AKI = conditions: cited from earlier work
[4] = literature and/or clinical trials

| Compound | Death rate in MIMIC III database (patients with AKI [1]) | Death rate in eICU database (patients with AKI [2]) | Coefficient (patients with AKI [3]) | Reported for protecting effect in all ICU patients (all ICU patients; [4]) | Reported for protecting effect in ICU patients with AKI (ICU patients with AKI; [4]) | Reported for protecting effect in all ICU patients (all ICU patients) | Reported for protecting effect in ICU patients with AKI (ICU patients with AKI) |
| --- | --- | --- | --- | --- | --- | --- | --- |
| C[C@H]1COc2c(N3CCN(C)CC3)c(F)cc3c(=O)c(C(=O)O)cn1c23 [Levofloxacin] | 270.20 per 1,000 patients | 146.84 per 1,000 patients | – | – | – | – | – |
| COc1ccnc(C[S+]([O-])c2nc3ccc(OC(F)F)cc3[nH]2)c1OC (stereo not shown) [Pantoprazole] | 254.46 per 1,000 patients | 151.82 per 1,000 patients | −0.025 | – | – | – | – |
| CC(=O)Oc1ccccc1C(=O)O [Aspirin] | 178.97 per 1,000 patients | 126.32 per 1,000 patients | – | – | – | – | – |
| NC(N)=Nc1nc(CSCCC(N)=NS(N)(=O)=O)cs1 [Famotidine] | 260.79 per 1,000 patients | 184.42 per 1,000 patients | – | – | – | – | – |
| C=CC[C@@H]1/C=C(\C)C[C@H](C)C[C@H](OC)[C@H]2O[C@@](O)(C(=O)C(=O)N3CCCC[C@H]3C(=O)O[C@H](/C(C)=C/[C@@H]3CC[C@@H](O)[C@H](OC)C3)[C@H](C)[C@@H](O)CC1=O)[C@H](C)C[C@@H]2OC [Tacrolimus] | 153.28 per 1,000 patients | 40 per 1,000 patients | – | – | – | – | – |
| CO/N=C(\C(=O)N[C@@H]1C(=O)N2C(C(=O)[O-])=C(C[N+]3(C)CCCC3)CS[C@H]12)c1csc(N)n1 [Cefepime] | 340.81 per 1,000 patients | 228.51 per 1,000 patients | – | – | – | – | – |
| CC1=C(C/C=C(\C)CCC[C@H](C)CCC[C@H](C)CCCC(C)C)C(=O)c2ccccc2C1=O [Phytonadione] | 364.17 per 1,000 patients | 335.33 per 1,000 patients | – | Y | N | – | – |
| Cc1ncc([N+](=O)[O-])n1CCO [Metronidazole] | 338.05 per 1,000 patients | 230.12 per 1,000 patients | – | – | – | – | – |
| O=[N+]([O-])OCC(CO[N+](=O)[O-])O[N+](=O)[O-] [Nitroglycerin] | 192.42 per 1,000 patients | 758.55 per 1,000 patients | – | – | – | N | N |
| OC(Cn1cncn1)(Cn1cncn1)c1ccc(F)cc1F [Fluconazole] | 333.33 per 1,000 patients | – | – | Y^5 | Y^6 | – | – |
| CC(=O)Oc1ccc(C(c2ccc(OC(C)=O)cc2)c2ccccn2)cc1 [Bisacodyl] | 194.46 per 1,000 patients | 156.59 per 1,000 patients | −0.021 | – | – | – | – |
| CC(C)(C)NCC(O)c1ccc(O)c(CO)c1 (stereo not shown) [Albuterol] | 257.20 per 1,000 patients | 174.59 per 1,000 patients | – | – | – | – | – |
| CN[C@H](CC(C)C)C(=O)N[C@H]1C(=O)N[C@@H](CC(N)=O)C(=O)N[C@H]2C(=O)N[C@H]3C(=O)N[C@H](C(=O)N[C@H](C(=O)O)c4cc(O)cc(O)c4-c4cc3ccc4O)[C@H](O)c3ccc(c(Cl)c3)Oc3cc2cc(c3O[C@@H]2O[C@H](CO)[C@@H](O)[C@H](O)[C@H]2O[C@H]2C[C@](C)(N)[C@H](O)[C@H](C)O2)Oc2ccc(cc2Cl)[C@H]1O [Vancomycin] | 300.03 per 1,000 patients | 229.29 per 1,000 patients | – | – | – | – | – |
| CC(C)[N+]1(C)[C@@H]2CC[C@H]1C[C@@H](OC(=O)C(CO)c1ccccc1)C2 (stereo partly shown) [Ipratropium] | 258.87 per 1,000 patients | 172.83 per 1,000 patients | – | – | – | – | – |
| Insulin | 241.12 per 1,000 patients | 172.01 per 1,000 patients | – | – | – | – | – |
| Glucagon | 176.04 per 1,000 patients | 129.74 per 1,000 patients | −0.050 | – | – | – | – |
| C[C@]12C=CC(=O)C=C1CC[C@@H]1[C@@H]2C(=O)C[C@@]2(C)[C@H]1CC[C@]2(O)C(=O)CO [Prednisone] | 191.30 per 1,000 patients | 60.49 per 1,000 patients | – | – | – | – | – |
| C[C@@H]1C[C@H]2[C@@H]3CCC4=CC(=O)C=C[C@]4(C)[C@@]3(F)[C@@H](O)C[C@]2(C)[C@@]1(O)C(=O)CO [Dexamethasone] | 375 per 1,000 patients | 58.14 per 1,000 patients | – | – | – | – | – |
| OC[C@H]1O[C@@H](O[C@@H]2[C@@H](CO)OC(O)(CO)[C@H]2O)[C@H](O)[C@@H](O)[C@H]1O (mixture of isomers) [Lactulose] | 326.35 per 1,000 patients | 233.56 per 1,000 patients | – | N | N | – | – |
| N[C@@H](Cc1cc(I)c(Oc2cc(I)c(O)c(I)c2)c(I)c1)C(=O)O [Levothyroxine] | 218.39 per 1,000 patients | 109.02 per 1,000 patients | – | – | – | – | – |
| NNc1nncc2ccccc12 [Hydralazine] | 155.12 per 1,000 patients | 80.60 per 1,000 patients | −0.035 | – | – | – | – |
| [H]/N=C(\N/C(=N/[H])NCCCCCCNC(=N)NC(=N)Nc1ccc(Cl)cc1)Nc1ccc(Cl)cc1 [Chlorhexidine] | 328.48 per 1,000 patients | 222.98 per 1,000 patients | – | – | – | – | – |
| CC(C)c1cccc(C(C)C)c1O [Propofol] | 287.82 per 1,000 patients | 261.45 per 1,000 patients | – | – | – | Y^16 | Y^17 |
| CC(C)c1c(C(=O)Nc2ccccc2)c(-c2ccccc2)c(-c2ccc(F)cc2)n1CC[C@@H](O)C[C@@H](O)CC(=O)O [Atorvastatin] | 156.06 per 1,000 patients | 88.66 per 1,000 patients | – | – | – | – | – |
| CCN1CCN(C(=O)N[C@@H](C(=O)N[C@@H]2C(=O)N3[C@@H]2SC(C)(C)[C@@H]3C(=O)O)c2ccccc2)C(=O)C1=O [Piperacillin] | 336.96 per 1,000 patients | 200.39 per 1,000 patients | – | Y | N | – | – |
| COc1ccc([C@@H]2Sc3ccccc3N(CCN(C)C)C(=O)[C@@H]2OC(C)=O)cc1 [Diltiazem] | 274.96 per 1,000 patients | 121.74 per 1,000 patients | – | – | – | – | – |
